# Measurements taken from patent publication US6750227B2, “Method of treatment of neuropsychiatric symptoms in patients with Alzheimer's Disease” (SmithKline Beecham Corporation, priority 1998, dated 2004).
# Like-named read-outs stand apart in the source and are kept apart here.
# Legend:
# [1] = tested on: patients with Alzheimer's Disease; conditions: for Agitation score / Anxiety score / Apathy score / Delusions score / Depression score / Disinhibition score / Elation score / Hallucinations score / Irritability score / Wandering score / Total NPI score: All Patients, negative = improvement; for NPI total score, country adjusted difference vs placebo: all patients
# Method: A retrospective meta-analysis on the combined data was then conducted and effects on individual symptoms assessed.
# Country adjusted differences were calculated as the difference between the adjusted least square means; allowing estimates from each country to be combined in a manner whereby the most precise estimate is given more weight.
# Following this analysis, a further retrospective analysis was conducted on the subgroup of patients who presented with severe behavioural disturbance at the start of the study (defined as a baseline NPI score>20). Country adjusted differences were calculated as the difference between the adjusted least square means; allowing estimates from each country to be combined in a manner whereby the most precise estimate is given more weight.
# Male Sprague Dawley rats [2] = conditions: rat, 30 min pretreatment
# Male Sprague Dawley rats [3] = experiment: Catalepsy in the rat; conditions: 90 min after dosing, doses up to 0.3 mg/kg po
# Male Sprague Dawley rats [4] = conditions: rat, in vivo, 2.8 mg/kg, 90 min
# [5] = Patients with baseline NPI >20, 25 μg bid
# [6] = Patients with baseline NPI >20, 50 μg uid
compound,measurement,setting,value
"CO/N=C(\C#N)[C@H]1CN2CCC1CC2 [Compound (I), [R-(Z)]-α-(methoxyimino)-α-(1-azabicyclo[2.2.2]oct-3-yl)acetonitrile]",Agitation score,[1]; 25 μg bid,−0.5
same,Anxiety score,[1]; 25 μg bid,−0.9
same,Apathy score,[1]; 25 μg bid,−1.1
same,Delusions score,[1]; 25 μg bid,−0.7
same,Depression score,[1]; 25 μg bid,−0.3
same,Disinhibition score,[1]; 25 μg bid,−0.7
same,Elation score,[1]; 25 μg bid,−1.1
same,Hallucinations score,[1]; 25 μg bid,−1.5
same,Irritability score,[1]; 25 μg bid,−0.4
same,Wandering score,[1]; 25 μg bid,−1.2
same,Total NPI score,"[1]; 25 μg bid, p 0.064 vs placebo",+0.7
same,Agitation score,[1]; 50 μg uid,−0.6
same,Anxiety score,[1]; 50 μg uid,−1.5
same,Apathy score,[1]; 50 μg uid,−1.5
same,Delusions score,[1]; 50 μg uid,−0.6
same,Depression score,[1]; 50 μg uid,−0.6
same,Disinhibition score,[1]; 50 μg uid,−0.7
same,Elation score,[1]; 50 μg uid,−1.9
same,Hallucinations score,[1]; 50 μg uid,−0.7
same,Irritability score,[1]; 50 μg uid,−0.9
same,Wandering score,[1]; 50 μg uid,−1.0
same,Total NPI score,"[1]; 50 μg uid, p 0.026 vs placebo",+0.3
same,Agitation endpoint score: change from baseline,[1]; [5],0
same,Anxiety endpoint score: change from baseline,[1]; [5],−1.9
same,Apathy endpoint score: change from baseline,[1]; [5],−1.4
same,Delusions endpoint score: change from baseline,[1]; [5],−0.8
same,Depression endpoint score: change from baseline,[1]; [5],0
same,Disinhibition endpoint score: change from baseline,[1]; [5],−0.8
same,Elation endpoint score: change from baseline,[1]; [5],−1.7
same,Hallucinations endpoint score: change from baseline,[1]; [5],−2.1
same,Irritability endpoint score: change from baseline,[1]; [5],−0.7
same,Wandering endpoint score: change from baseline,[1]; [5],−1.7
same,Total NPI endpoint score: change from baseline,"[1]; Patients with baseline NPI >20, 25 μg bid, p 0.043 vs placebo",−4.0
same,Agitation endpoint score: change from baseline,[1]; [6],−0.6
same,Anxiety endpoint score: change from baseline,[1]; [6],−1.8
same,Apathy endpoint score: change from baseline,[1]; [6],−1.6
same,Delusions endpoint score: change from baseline,[1]; [6],−1.4
same,Depression endpoint score: change from baseline,[1]; [6],−1.1
same,Disinhibition endpoint score: change from baseline,[1]; [6],−1.1
same,Elation endpoint score: change from baseline,[1]; [6],−2.5
same,Hallucinations endpoint score: change from baseline,[1]; [6],−1.4
same,Irritability endpoint score: change from baseline,[1]; [6],−1.2
same,Wandering endpoint score: change from baseline,[1]; [6],−1.3
same,Total NPI endpoint score: change from baseline,"[1]; Patients with baseline NPI >20, 50 μg uid, p 0.019 vs placebo",−6.1
same,"NPI total score, country adjusted difference vs placebo","[1]; 50 μg uid, p=0.026, 95% CI −4.1, −0.3",−2.1
same,"NPI total score, country adjusted difference vs placebo","[1]; 25 kg bid (so in the source), p=0.064, 95% CI −3.8, 0.1",−1.8
same,"total NPI score, country adjusted difference vs placebo","[1]; patients with baseline NPI>20, 25 μg bid, p=0.043, 95% CI −14.1, −0.2",−7.18
same,"total NPI score, country adjusted difference vs placebo","[1]; patients with baseline NPI>20, 50 μg uid, p=0.019, 95% CI −14.4, −1.3",−7.86
same,dose at which reversal of amphetamine-induced hyperactivity reached significance (P<0.01),Male Sprague Dawley rats [2]; 0.01-0.3 mg/kg po,0.3 mg/kg
same,ED50 for reversal of amphetamine-induced hyperactivity,"Male Sprague Dawley rats [2]; po, 95% CI=0.14-0.75",0.25 mg/kg
same,catalepsy,Male Sprague Dawley rats [3],did not produce catalepsy
"O=C(CCCN1CCC(O)(c2ccc(Cl)cc2)CC1)c1ccc(F)cc1 [haloperidol, Haloperidol]",rats in which catalepsy was produced,Male Sprague Dawley rats [4],6 of 6
